Data published in ChEMBL document CHEMBL5712891, “Inhibition of BET bromodomain-dependent XIAP and FLIP expression sensitizes KRAS-mutated NSCLC to pro-apoptotic agents” (Cell Death Dis, 2016).
Calls of active or inactive are those of the source. No cut-off for these calls is given here.

Legend:
NCI-H1373 [1] = assay: Induction of cell cycle arrest in human NCI-H1373 cells assessed as accumulation of cells at G0/G1 phase at 1 uM for 24 hrs by Click-iT EdU Alexa Fluor 647 flow cytometric assay kit analysis (reference value: 45%); type: functional
NCI-H1373 [2] = assay: Induction of cell cycle arrest in human NCI-H1373 cells assessed as accumulation of cells at G0/G1 phase at 0.1 uM for 24 hrs by Click-iT EdU Alexa Fluor 647 flow cytometric assay kit analysis (reference value: 48%); type: functional
DV-90 [3] = assay: Induction of cell cycle arrest in human DV-90 cells assessed as accumulation of cells at G0/G1 phase at 0.1 uM for 24 hrs by Click-iT EdU Alexa Fluor 647 flow cytometric assay kit analysis (reference value: 45%); type: functional
DV-90 [4] = assay: Induction of cell cycle arrest in human DV-90 cells assessed as accumulation of cells at G0/G1 phase at 0.25 uM for 24 hrs by Click-iT EdU Alexa Fluor 647 flow cytometric assay kit analysis (reference value: 45%); type: functional
DV-90 [5] = assay: Induction of cell cycle arrest in human DV-90 cells assessed as accumulation of cells at G2/M phase at 1 uM for 24 hrs by Click-iT EdU Alexa Fluor 647 flow cytometric assay kit analysis (reference value: 24%); type: functional
A549 [6] = assay: Downregulation of XIAP protein expression level in human A549 cells at 1 uM for 24 hrs by […] analysis; type: functional, cell-based
A549 [7] = assay: Induction of apoptosis in human A549 cells assessed as viable cells at 1 uM by annexin V-PI based flow cytometric analysis (reference value: 95.7%); type: functional; conditions: read-out: Activity
NCI-H460 [8] = assay: Induction of apoptosis in human NCI-H460 cells assessed as late apoptotic cells at 0.5 uM for 24 hrs by annexin V-PI staining based flow cytometric analysis (reference value: 3.0%); type: functional
DV-90 [9] = assay: Induction of apoptosis in human DV-90 cells assessed as early apoptotic cells at 0.5 uM for 24 hrs by annexin V-PI staining based flow cytometric analysis (reference value: 1.7%); type: functional
NCI-H460 [10] = assay: Induction of apoptosis in human NCI-H460 cells assessed as viable cells at 0.5 uM for 24 hrs by annexin V-PI staining based flow cytometric analysis (reference value: 94%); type: functional; conditions: read-out: Activity
NCI-H1373 [11] = assay: Induction of cell cycle arrest in human NCI-H1373 cells assessed as accumulation of cells at G2/M phase at 0.1 uM for 24 hrs by Click-iT EdU Alexa Fluor 647 flow cytometric assay kit analysis (reference value: 13%); type: functional
NCI-H358 [12] = assay: Downregulation of XIAP mRNA expression level in human NCI-H358 cells at 0.1 to 1 uM for 24 hrs by qRT-PCR analysis; type: functional, cell-based; conditions: dose 0.1-1 µM
NCI-H441 [13] = assay: Downregulation of XIAP mRNA expression level in human NCI-H441 cells at 0.1 to 1 uM for 24 hrs by qRT-PCR analysis; type: functional, cell-based; conditions: dose 0.1-1 µM
DV-90 [14] = assay: Downregulation of FLIP gene in human DV-90 cells after 24 hrs by microarray profiling analysis; type: functional, cell-based
A549 [15] = assay: Induction of cell cycle arrest in human A549 cells assessed as accumulation of cells at G0/G1 phase at 0.1 uM for 24 hrs by Click-iT EdU Alexa Fluor 647 flow cytometric assay kit analysis (reference value: 61%); type: functional
NCI-H2030 = assay: Induction of TRAIL dependent apoptosis in human NCI-H2030 cells by annexin V-PI staining based flow cytometric analysis; type: functional, cell-based
DV-90 [16] = assay: Induction of cell cycle arrest in human DV-90 cells assessed as accumulation of cells at G0/G1 phase at 1 uM for 24 hrs by Click-iT EdU Alexa Fluor 647 flow cytometric assay kit analysis (reference value: 44%); type: functional
A549 [17] = assay: Downregulation of c-MYC protein level in human A549 cells at 100 to 5000 nM upto 24 hrs by Western blot analysis; type: functional, cell-based; conditions: dose 100-5000 nM
NCI-H358 [18] = assay: Downregulation of c-MYC mRNA expression level in human NCI-H358 cells at 0.1 to 1 uM for 24 hrs by qRT-PCR analysis; type: functional, cell-based; conditions: dose 0.1-1 µM
A549 [19] = assay: Antitumor activity against human A549 cells assessed as test to control tumor ratio at 50 mg/kg, ip for 28 days relative to control; type: functional; conditions: time 28 day
NCI-H1373 [20] = assay: Induction of TRAIL dependent apoptosis in human NCI-H1373 cells assessed as late apoptotic cells at 1 uM in presence of […] by annexin V-PI staining based flow cytometric analysis (reference value: 8.3%); type: functional
NCI-H1373 [21] = assay: Induction of apoptosis in human NCI-H1373 cells assessed as necrotic cells at 0.5 uM for 24 hrs by annexin V-PI staining based flow cytometric analysis (reference value: 5.5%); type: functional
NCI-H441 [22] = assay: Downregulation of c-MYC protein expression level in human NCI-H441 cells at 1 uM for 24 hrs by […] analysis; type: functional, cell-based
NCI-H1373 [23] = assay: Induction of cell cycle arrest in human NCI-H1373 cells assessed as accumulation of cells at S phase at 0.5 uM for 24 hrs by Click-iT EdU Alexa Fluor 647 flow cytometric assay kit analysis (reference value: 45%); type: functional
A549 [24] = assay: Downregulation of FLIP mRNA expression level in human A549 cells at 0.1 to 1 uM for 24 hrs by qRT-PCR analysis; type: functional, cell-based; conditions: dose 0.1-1 µM
NCI-H1373 [25] = assay: Induction of cell cycle arrest in human NCI-H1373 cells assessed as accumulation of cells at G0/G1 phase at 0.5 uM for 24 hrs by Click-iT EdU Alexa Fluor 647 flow cytometric assay kit analysis (reference value: 40%); type: functional
NCI-H460 [26] = assay: Induction of apoptosis in human NCI-H460 cells assessed as necrotic cells at 2.5 uM for 24 hrs by annexin V-PI staining based flow cytometric analysis (reference value: 2.7%); type: functional
NCI-H1373 [27] = assay: Induction of apoptosis in human NCI-H1373 cells assessed as late apoptotic cells at 2.5 uM for 24 hrs by annexin V-PI staining based flow cytometric analysis (reference value: 16.2%); type: functional
NCI-H460 [28] = assay: Induction of apoptosis in human NCI-H460 cells assessed as late apoptotic cells at 2.5 uM for 24 hrs by annexin V-PI staining based flow cytometric analysis (reference value: 3.7%); type: functional
DV-90 [29] = assay: Induction of cell cycle arrest in human DV-90 cells assessed as accumulation of cells at G2/M phase at 0.5 uM for 24 hrs by Click-iT EdU Alexa Fluor 647 flow cytometric assay kit analysis (reference value: 21%); type: functional
DV-90 [30] = assay: Induction of cell cycle arrest in human DV-90 cells assessed as accumulation of cells at G0/G1 phase at 0.1 uM for 24 hrs by Click-iT EdU Alexa Fluor 647 flow cytometric assay kit analysis (reference value: 47%); type: functional
A549 [31] = assay: Induction of apoptosis in human A549 cells assessed as early apoptotic cells at 0.5 uM for 24 hrs by annexin V-PI staining based flow cytometric analysis (reference value: 0.2%); type: functional
A549 [32] = assay: Induction of apoptosis in human A549 cells assessed as early apoptotic cells at 2.5 uM for 24 hrs by annexin V-PI staining based flow cytometric analysis (reference value: 0.2%); type: functional

Question: `CCNC(=O)C[C@@H]1N=C(c2ccc(Cl)cc2)c2cc(OC)ccc2-n2c(C)nnc21` [MOLIBRESIB] was tested. Which Activity (NCI-H1373 [1]) did it give?
Answer: 50%

Question: And the Activity (NCI-H1373 [2])?
Answer: 47%

Question: What about the Activity (DV-90 [3]) of the same compound?
Answer: 46%

Question: What about the Activity (DV-90 [4]) of the same compound?
Answer: 49%

Question: Which Activity (DV-90 [5]) does the source give for `Cc1sc2c(c1C)C(c1ccc(Cl)cc1)=N[C@@H](CC(=O)OC(C)(C)C)c1nnc(C)n1-2` here?
Answer: 27%

Question: And the Activity (A549 [6])?
Answer: Active

Question: And the viability at 1 µM (A549 [7])?
Answer: 98%

Question: What about the Activity (NCI-H460 [8]) of the same compound?
Answer: 4.5%

Question: And the Activity (DV-90 [9])?
Answer: 2.6%

Question: And the viability at 0.5 µM (NCI-H460 [10])?
Answer: 91.2%

Question: And the Activity (NCI-H1373 [11])?
Answer: 17%

Question: And the Activity (NCI-H358 [12])?
Answer: Active

Question: And the Activity (NCI-H441 [13])?
Answer: Active

Question: And the Activity (DV-90 [14])?
Answer: Active

Question: What about the Activity (A549 [15]) of the same compound?
Answer: 61%

Question: And the Activity (NCI-H2030)?
Answer: Active

Question: What about the Activity (DV-90 [16]) of the same compound?
Answer: 56%

Question: And the Activity (A549 [17])?
Answer: inactive

Question: What about the Activity (NCI-H358 [18]) of the same compound?
Answer: Active

Question: And the T/C (A549 [19])?
Answer: 79%

Question: What about the Activity (NCI-H1373 [20]) of the same compound?
Answer: 35.9%

Question: And the Activity (NCI-H1373 [21])?
Answer: 13%

Question: What about the Activity (NCI-H441 [22]) of the same compound?
Answer: Active

Question: And the Activity (NCI-H1373 [23])?
Answer: 12%

Question: What about the Activity (A549 [24]) of the same compound?
Answer: Active

Question: What about the Activity (NCI-H1373 [25]) of the same compound?
Answer: 63%

Question: What about the Activity (NCI-H460 [26]) of the same compound?
Answer: 3.7%

Question: And the Activity (NCI-H1373 [27])?
Answer: 21.9%

Question: How did the Activity (NCI-H460 [28]) turn out when `Cc1sc2c(c1C)C(c1ccc(Cl)cc1)=N[C@@H](CC(=O)Nc1ccc(O)cc1)c1nnc(C)n1-2` [BIRABRESIB] was run?
Answer: 5.1%

Question: What about the Activity (DV-90 [29]) of the same compound?
Answer: 25%

Question: What about the Activity (DV-90 [30]) of the same compound?
Answer: 50%

Question: And the Activity (A549 [31])?
Answer: 0.1%

Question: And the Activity (A549 [32])?
Answer: 0.1%
